{"source": "patent US12145987B2", "about": "“Method for depleting cytotoxic T cells using an anti-LAG-3 antibody composition” (Daiichi Sankyo Company, Limited, priority 2017, dated 2024)", "format_in_all_cases": "cell-based", "key": {"T cells (total number)": {"system": "T cells (total number)", "test": "Total T cell number after CD3/CD28 stimulation of human PBMCs for 4 days, flow cytometry", "settings": "hLA212_H4/L2 10 μg/mL, tacrolimus 10 nM, dexamethasone 1 μM, PBMCs of two donors", "procedure": "(§1) PBMCs were separated from human peripheral blood by Ficoll centrifugation and added to a 96-well U-bottom microplate in an amount of 4×10^5 cells/well. Human IL-2 (PeproTech, Inc., final concentration: 100 ng/mL) and Dynabeads Human T-Activator CD3/CD28 (Life Technologies Corp., 4×105 beads/well) were added thereto, and T cells were activated by culture for 4 days. The obtained cells were recovered, suspended in a FACS buffer (PBS, 0.1% BSA, and 0.1% sodium azide), and then reacted with Human BD Fc Block (Becton, Dickinson and Company) at room temperature for 10 minutes. Subsequently, the cell surface was stained by reaction at 4° C. for 30 minutes with fluorescently labeled antibodies diluted with a FACS buffer containing a LIVE/DEAD Fixable Dead Cell Stain Kit-near-IR fluorescent reactive dye (manufactured by Invitrogen Corp.), followed by washing with a FACS buffer. […] The data was analyzed using FlowJo (manufactured by Tree Star Inc). After removal of the LIVE/DEAD Fixable Dead Cell Stain Kit-near-IR fluorescent reactive dye-positive dead cells by gating, only the living cells were analyzed by further gating CD3 positive and CD8 positive CD8 T cells. […]"}, "[1]": {"system": "perforin positive CD8 T cells", "test": "Perforin positive CD8 T cell number after CD3/CD28 stimulation of human PBMCs for 4 days, flow cytometry", "settings": "hLA212_H4/L2 10 μg/mL, tacrolimus 10 nM, PBMCs of two donors", "procedure": "as §1"}, "CD28 negative T cells": {"system": "CD28 negative T cells", "test": "CD28 negative T cell number after CD3/CD28 stimulation of human PBMCs for 4 days, flow cytometry", "settings": "tacrolimus 10 nM, dexamethasone 1 μM, two donors", "procedure": "(§2) PBMCs were separated from human peripheral blood by Ficoll centrifugation and added to a 96-well U-bottom microplate in an amount of 4×10^5 cells/well. Human IL-2 (PeproTech, Inc., final concentration: 100 ng/mL) and Dynabeads Human T-Activator CD3/CD28 (Life Technologies Corp., 4×105 beads/well) were added thereto, and T cells were activated by culture for 4 days. The obtained cells were recovered, suspended in a FACS buffer (PBS, 0.1% BSA, and 0.1% sodium azide), and then reacted with Human BD Fc Block (Becton, Dickinson and Company) at room temperature for 10 minutes. […] The data was analyzed using FlowJo (manufactured by Tree Star Inc). After removal of the LIVE/DEAD Fixable Dead Cell Stain Kit-near-IR fluorescent reactive dye-positive dead cells by gating, only the living cells were analyzed by further gating CD3 positive and CD8 positive CD8 T cells.\n(§3) The effect of the humanized anti-human LAG-3 antibody hLA212_H4/L2, the calcineurin inhibitor tacrolimus, and the corticosteroid dexamethasone on CD28 negative T cells and CD57 positive T cells was investigated in the assay system of Example 13. […] Out of the living cells, a CD3 positive and CD8 negative fraction and a CD3 positive and CD8 positive fraction were analyzed as CD4 T cells and CD8 T cells, respectively."}, "CD57 positive T cells": {"system": "CD57 positive T cells", "test": "CD57 positive T cell number after CD3/CD28 stimulation of human PBMCs for 4 days, flow cytometry", "settings": "tacrolimus 10 nM, dexamethasone 1 μM, two donors", "procedure": "as §2, §3"}, "[2]": {"settings": "hLA212_H4/L2 10, 1, 0.1 μg/mL (effect concentration dependent)"}}, "data": [{"compound": "C=CC[C@@H]1/C=C(\\C)C[C@H](C)C[C@H](OC)[C@H]2O[C@@](O)(C(=O)C(=O)N3CCCC[C@H]3C(=O)O[C@H](/C(C)=C/[C@@H]3CC[C@@H](O)[C@H](OC)C3)[C@H](C)[C@@H](O)CC1=O)[C@H](C)C[C@@H]2OC", "note": "[tacrolimus, reference compound]", "values": [{"measurement": "total number of T cells after culture, compared with the control", "setting": "T cells (total number)", "value": "slightly reduced"}, {"measurement": "number of perforin positive CD8 T cells, compared with the control", "setting": "[1]", "value": "rarely different from those of the control"}, {"measurement": "number of CD28 negative CD8 T cells", "setting": "CD28 negative T cells; [2]", "value": "evident reduction in the number of CD28 negative CD8 T cells as found for the LAG-3 antibody was not observed"}, {"measurement": "number of CD28 negative CD4 T cells", "setting": "CD28 negative T cells; hLA212_H4/L2 10, 1, 0.1 μg/mL", "value": "hardly effective or rather increased the cell number"}, {"measurement": "number of CD57 positive CD8 T cells", "setting": "CD57 positive T cells; [2]", "value": "evident reduction in the number of CD57 positive CD8 T cells as found for the LAG-3 antibody was not observed"}, {"measurement": "number of CD57 positive CD4 T cells", "setting": "CD57 positive T cells; hLA212_H4/L2 10, 1, 0.1 μg/mL", "value": "such an effect was hardly observed"}]}]}
